# In patent US6737383B1, “Herbicidal oxadiazolidines” (priority 1999, dated 2004):
# Legend:
# bedstraw = assay: Test B pre/postemergence bedstraw; assay type: in vivo, Galium aparine; conditions: Postemergence, Rate 1000 g/ha; scale 0 to 10 (0 no effect, 10 complete control)
# Summary of the method: (§1)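 Response is a visual 0-to-10 score relative to untreated plants, where 0 means no effect and 10 means complete control, taken twelve to sixteen days after application. Treatments went onto soil at planting and onto foliage of 1- to 4-leaf plants, using a surfactant-containing non-phytotoxic solvent.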
# soybean = assay: Test B pre/postemergence soybean; assay type: in vivo, Glycine max; conditions: for Soybean plant response rating: Postemergence; for Plant response rating, Soybean: Preemergence
# Summary of the method: as §1
# crabgrass = assay: Test B pre/postemergence crabgrass; assay type: in vivo, Digitaria sanguinalis; conditions: for Crabgrass plant response rating: Postemergence; for Plant response rating, Crabgrass: Preemergence
# Summary of the method: as §1
# velvetleaf = assay: Test B pre/postemergence velvetleaf; assay type: in vivo, Abutilon theophrasti; conditions: for Velvetleaf plant response rating: Postemergence; for Plant response rating, Velvetleaf: Preemergence
# Summary of the method: as §1
# purple nutsedge = assay: Test B pre/postemergence purple nutsedge; assay type: in vivo, Cyperus rotundus; conditions: for Nutsedge plant response rating: Postemergence; for Plant response rating, Nutsedge: Preemergence
# Summary of the method: as §1
# corn = assay: Test B pre/postemergence corn; assay type: in vivo, Zea mays; conditions: for Corn plant response rating: Postemergence; for Plant response rating, Corn: Preemergence
# Summary of the method: as §1
# giant foxtail = assay: Test B pre/postemergence giant foxtail; assay type: in vivo, Setaria faberii; conditions: for Giant foxtail plant response rating: Postemergence; for Plant response rating, Giant foxtail: Preemergence
# Summary of the method: as §1
# cocklebur = assay: Test B pre/postemergence cocklebur; assay type: in vivo, Xanthium strumarium; conditions: for Cocklebur plant response rating: Postemergence; for Plant response rating, Cocklebur: Preemergence
# Summary of the method: as §1
# sugar beet = assay: Test B pre/postemergence sugar beet; assay type: in vivo, Beta vulgaris; conditions: for Sugarbeets plant response rating: Postemergence; for Plant response rating, Sugarbeets: Preemergence
# Summary of the method: as §1
# wheat = assay: Test B pre/postemergence wheat; assay type: in vivo, Triticum aestivum; conditions: for Wheat plant response rating: Postemergence; for Plant response rating, Wheat: Preemergence
# Summary of the method: as §1
# pigweed = assay: Test B pre/postemergence pigweed; assay type: in vivo, Amaranthus retroflexus; conditions: for Redroot pigweed plant response rating: Postemergence; for Plant response rating, Redroot pigweed: Preemergence
# Summary of the method: as §1
# bamyardgrass = assay: Test B flood test barnyardgrass; assay type: in vivo, Echinochloa crus-galli
# Summary of the method: (§2)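 Plants were grown to the 2-leaf stage before treatment with test chemical, then held in a greenhouse for twelve to sixteen days. Injury was visually rated against untreated controls on a 0–10 scale, where 0 is no effect and 10 is complete control.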
# wild oat = assay: Test B pre/postemergence wild oat; assay type: in vivo, Avena fatua; conditions: for Wild oats plant response rating: Postemergence; for Plant response rating, Wild oats: Preemergence
# Summary of the method: as §1
# duck salad = assay: Test B flood test duck salad; assay type: in vivo, Heteranthera limosa
# Summary of the method: as §2
# rape = assay: Test B pre/postemergence rape; assay type: in vivo, Brassica napus; conditions: for Rape plant response rating: Postemergence; for Plant response rating, Rape: Preemergence
# Summary of the method: as §1
# blackgrass = assay: Test B pre/postemergence blackgrass; assay type: in vivo, Alopecurus myosuroides; conditions: for Blackgrass plant response rating: Postemergence; for Plant response rating, Blackgrass: Preemergence
# Summary of the method: as §1
# rice = assay: Test B flood test rice; assay type: in vivo, Oryza sativa
# Summary of the method: as §2
# surinam grass = assay: Test B pre/postemergence surinam grass; assay type: in vivo, Brachiaria decumbens; conditions: for B. signalgrass plant response rating: Postemergence; for Plant response rating, B. signalgrass: Preemergence
# Summary of the method: as §1
# smallflower flatsedge = assay: Test B flood test smallflower flatsedge; assay type: in vivo, Cyperus difformis
# Summary of the method: as §2
# morningglory = assay: Test B pre/postemergence morningglory; assay type: in vivo, Ipomoea hederacea; conditions: for Morningglory plant response rating: Postemergence; for Plant response rating, Morningglory: Preemergence
# Summary of the method: as §1
# [1] = Rate 125 g/ha, scale of 0 to 10 where 0 is no effect and 10 is complete control
# [2] = Rate 1000 g/ha, scale 0 to 10 (0 no effect, 10 complete control)
# [3] = Rate 500 g/ha, scale of 0 to 10 where 0 is no effect and 10 is complete control
# [4] = Rate 250 g/ha, scale 0 to 10, 0 is no effect, 10 is complete control
# [5] = Rate 500 g/ha, scale 0 to 10, 0 is no effect, 10 is complete control
# [6] = Rate 250 g/ha, scale 0 to 10 (0 no effect, 10 complete control)
# [7] = Pre-emergence, Rate 1000 g/ha, scale 0 to 10 (0 no effect, 10 complete control)
# [8] = Rate 125 g/ha, under heading Pre-emergence, flood test species, visual evaluation after twelve to sixteen days
# [9] = Rate 250 g/ha, Pre-emergence (flood test species), scale 0 to 10, 0 is no effect, 10 is complete control
# [10] = Rate 500 g/ha, Pre-emergence section of Table B, 0 to 10 scale (0 no effect, 10 complete control)
structure (smiles),measurement,setting,value
COC(=O)C(c1ccccc1)n1c(=O)on(C(=O)N(c2ccc(F)cc2)C(C)C)c1=O (centres unmarked) [Compound 677],Bedstraw plant response rating,bedstraw,0
same,Soybean plant response rating,soybean; [1],0
same,Soybean plant response rating,soybean; [2],7
same,"Plant response rating, Soybean",soybean; [1],0
same,"Plant response rating, Soybean",soybean; [3],0
same,Soybean plant response rating,soybean; [4],1
same,Soybean plant response rating,soybean; [5],2
same,"Plant response rating, Soybean",soybean; [2],0
same,Crabgrass plant response rating,crabgrass; [1],0
same,Crabgrass plant response rating,crabgrass; [2],6
same,"Plant response rating, Crabgrass",crabgrass; [1],3
same,"Plant response rating, Crabgrass",crabgrass; [6],6
same,"Plant response rating, Crabgrass",crabgrass; [3],7
same,Crabgrass plant response rating,crabgrass; [4],0
same,Crabgrass plant response rating,crabgrass; [5],4
same,"Plant response rating, Crabgrass",crabgrass; [2],9
same,Velvetleaf plant response rating,velvetleaf; [1],0
same,Velvetleaf plant response rating,velvetleaf; [2],3
same,"Plant response rating, Velvetleaf",velvetleaf; [1],0
same,"Plant response rating, Velvetleaf",velvetleaf; [3],0
same,Velvetleaf plant response rating,velvetleaf; [4],0
same,Velvetleaf plant response rating,velvetleaf; [5],3
same,"Plant response rating, Velvetleaf",velvetleaf; [2],0
same,Nutsedge plant response rating,purple nutsedge; [1],0
same,Nutsedge plant response rating,purple nutsedge; [2],0
same,"Plant response rating, Nutsedge",purple nutsedge; [1],0
same,"Plant response rating, Nutsedge",purple nutsedge; [3],0
same,Nutsedge plant response rating,purple nutsedge; [4],0
same,Nutsedge plant response rating,purple nutsedge; [5],0
same,"Plant response rating, Nutsedge",purple nutsedge; [2],0
same,Corn plant response rating,corn; [1],0
same,Corn plant response rating,corn; [2],0
same,"Plant response rating, Corn",corn; [1],0
same,"Plant response rating, Corn",corn; [6],0
same,"Plant response rating, Corn",corn; [3],0
same,Corn plant response rating,corn; [4],0
same,Corn plant response rating,corn; [5],0
same,"Plant response rating, Corn",corn; [2],0
same,Giant foxtail plant response rating,giant foxtail; [1],0
same,Giant foxtail plant response rating,giant foxtail; [2],5
same,"Plant response rating, Giant foxtail",giant foxtail; [1],5
same,"Plant response rating, Giant foxtail",giant foxtail; [3],10
same,Giant foxtail plant response rating,giant foxtail; [4],2
same,Giant foxtail plant response rating,giant foxtail; [5],4
same,"Plant response rating, Giant foxtail",giant foxtail; [2],10
same,Cocklebur plant response rating,cocklebur; [1],0
same,Cocklebur plant response rating,cocklebur; [2],1
same,"Plant response rating, Cocklebur",cocklebur; [1],0
same,"Plant response rating, Cocklebur",cocklebur; [6],0
same,"Plant response rating, Cocklebur",cocklebur; [3],0
same,Cocklebur plant response rating,cocklebur; [4],0
same,Cocklebur plant response rating,cocklebur; [5],1
same,"Plant response rating, Cocklebur",cocklebur; [2],0
same,Sugarbeets plant response rating,sugar beet; [1],0
same,Sugarbeets plant response rating,sugar beet; [2],1
same,"Plant response rating, Sugarbeets",sugar beet; [1],0
same,"Plant response rating, Sugarbeets",sugar beet; [3],0
same,Sugarbeets plant response rating,sugar beet; [4],0
same,Sugarbeets plant response rating,sugar beet; [5],1
same,"Plant response rating, Sugarbeets",sugar beet; [2],7
same,Wheat plant response rating,wheat; [1],0
same,Wheat plant response rating,wheat; [2],0
same,"Plant response rating, Wheat",wheat; [1],0
same,"Plant response rating, Wheat",wheat; [3],0
same,Wheat plant response rating,wheat; [4],0
same,Wheat plant response rating,wheat; [5],0
same,"Plant response rating, Wheat",wheat; [2],0
same,Redroot pigweed plant response rating,pigweed; [1],2
same,Redroot pigweed plant response rating,pigweed; [2],4
same,"Plant response rating, Redroot pigweed",pigweed; [1],4
same,Redroot pigweed plant response rating,pigweed; [4],3
same,Redroot pigweed plant response rating,pigweed; [5],3
same,"Plant response rating, Redroot pigweed",pigweed; [2],8
same,Barnyardgrass plant response rating,bamyardgrass; [7],0
same,"Barnyardgrass plant response rating (0 to 10 scale, 0 is no effect, 10 is complete control)",bamyardgrass; [8],0
same,Barnyardgrass plant response rating,bamyardgrass; [9],0
same,Barnyardgrass plant response rating,bamyardgrass; [10],0
same,Wild oats plant response rating,wild oat; [1],0
same,Wild oats plant response rating,wild oat; [2],0
same,"Plant response rating, Wild oats",wild oat; [1],0
same,"Plant response rating, Wild oats",wild oat; [3],0
same,Wild oats plant response rating,wild oat; [4],0
same,Wild oats plant response rating,wild oat; [5],0
same,"Plant response rating, Wild oats",wild oat; [2],2
same,Ducksalad plant response rating,duck salad; [7],0
same,"Ducksalad plant response rating (0 to 10 scale, 0 is no effect, 10 is complete control)",duck salad; [8],0
same,Ducksalad plant response rating,duck salad; [9],0
same,Ducksalad plant response rating,duck salad; [10],0
same,Rape plant response rating,rape; [1],0
same,Rape plant response rating,rape; [2],0
same,"Plant response rating, Rape",rape; [1],0
same,"Plant response rating, Rape",rape; [3],0
same,Rape plant response rating,rape; [4],0
same,Rape plant response rating,rape; [5],0
same,"Plant response rating, Rape",rape; [2],3
same,Blackgrass plant response rating,blackgrass; [1],0
same,Blackgrass plant response rating,blackgrass; [2],4
same,"Plant response rating, Blackgrass",blackgrass; [1],0
same,"Plant response rating, Blackgrass",blackgrass; [6],0
same,"Plant response rating, Blackgrass",blackgrass; [3],0
same,Blackgrass plant response rating,blackgrass; [4],0
same,Blackgrass plant response rating,blackgrass; [5],1
same,"Plant response rating, Blackgrass",blackgrass; [2],4
same,Rice plant response rating,rice; [7],0
same,"Rice plant response rating (0 to 10 scale, 0 is no effect, 10 is complete control)",rice; [8],0
same,Rice plant response rating,rice; [9],0
same,Rice plant response rating,rice; [10],0
same,B. signalgrass plant response rating,surinam grass; [1],0
same,B. signalgrass plant response rating,surinam grass; [2],1
same,"Plant response rating, B. signalgrass",surinam grass; [1],0
same,"Plant response rating, B. signalgrass",surinam grass; [6],3
same,"Plant response rating, B. signalgrass",surinam grass; [3],5
same,B. signalgrass plant response rating,surinam grass; [4],0
same,B. signalgrass plant response rating,surinam grass; [5],0
same,"Plant response rating, B. signalgrass",surinam grass; [2],9
same,S. Flatsedge plant response rating,smallflower flatsedge; [7],0
same,"S. Flatsedge plant response rating (0 to 10 scale, 0 is no effect, 10 is complete control)",smallflower flatsedge; [8],0
same,S. Flatsedge plant response rating,smallflower flatsedge; [9],0
same,S. Flatsedge plant response rating,smallflower flatsedge; [10],0
same,Morningglory plant response rating,morningglory; [1],2
same,"Plant response rating, Morningglory",morningglory; [1],0
same,"Plant response rating, Morningglory",morningglory; [3],0
same,Morningglory plant response rating,morningglory; [4],4
same,Morningglory plant response rating,morningglory; [5],7
same,"Plant response rating, Morningglory",morningglory; [2],0
